Results from patent US20110195910A1, “USE OF TOCOTRIENOL COMPOSITION FOR THE PREVENTION OF CANCER” (DAVOS LIFE SCIENCE PTE. LTD., priority 2008, published 2011).

Legend:
[1] = system: C32 cells; assay: Flow cytometry and western blotting, C32 cells; type: cell-based
Method: 1.1.3 Flow cytometry—Cell cycle distribution was examined using flow cytometry. Briefly, cells were harvested by trypsinization, fixed in 70% ethanol at 4° C. overnight, and then resuspended in PBS. After incubation at 4° C. for overnight, 2×10^6 cells were incubated with in 20 μg/ml propidium iodide (PI) and 2 mg RNaseA for 15 minutes at 37° C. Cells were then examined by BD SLRII cytometer and the results were analyzed using ModFit software (Becton Dickinson, Mountain View, Calif.). Data were expressed as the percentage of cell cycle distribution in the entire population.
1.1.5 Western blotting—Detailed protocols have been described previously and are known in the art. Briefly, cell lysates were prepared by suspending cell pellets in lysis buffer [50 mmol/l Tris-HCl (pH 8.0), 150 mmol/l NaCl, 1% NP40, 0.5% deoxycholate, 0.1% SDS, 1 mg/ml aprotinin, 1 μg/ml leupeptin and 1 mmol/l phenylmethylsulfonyl fluoride]. For nuclear protein extraction, NucBuster™ protein extraction kit was used. Protein concentration was measured using the DC Protein Assay kit (Bio-Rad, Hercules, Calif.). Equal amount of protein (30 μg) was loaded onto a 10% SDS polyacrylamide gel for electrophoresis and then transferred onto a polyvinylidene difluoride membrane (Amersham, Piscataway, N.J.). The membrane was then incubated with primary antibodies for 1 hr at room temperature against E-cadherin (BD Biosciences, Bedford, Mass.), α-catenin, β-catenin, γ-catenin, Id-1, Id-3, EGFR, phosphor-c-jun, phosphor-ATF2, cleaved PARP, vimentin, α-smooth muscle actin, twist (Santa Cruz Biotechnology, Calif.), phosphor-IkB-alpha (Ser32/36), phosphor-IKK alpha (Seri 80)/IKK beta (Ser181), phosphor-SAPK/JNK (Thr183/Tyr185) G9, SAPK/JNK, NF-kB p65 (5A5) (Cell Signaling Technology Inc, Beverly, Mass.), Snail (Abcam). After incubation with appropriate secondary antibodies, signals were visualized by ECL western blotting system (Amersham, Piscataway, N.J.). Expression of β-actin and histone H1 were assessed as an internal loading control for total cell lysate and nuclear protein lysate respectively.

[2] = γ-T3 level in tumors and organs by HPLC; type: in vivo, BALB/c athymic nude mice; conditions: 50 mg/kg/day γ-T3 for 10 days
Method: Nude mice bearing similar tumor sizes of about 100 mm^3 (after 2 weeks inoculation) were selected and randomly divided into three groups (n=5 per group); control (DMSO as vehicle), γ-T3 (50 mg/kg/d) and combination treatment of γ-T3 and Docetaxel (50 mg of γ-T3/kg/d and 7.5 mg of Docetaxel/kg/wk). The mice were weighed as daily basic and the tumors were measured using a Digital Carbon Fiber Caliper (Fisher scientific, Pittsburgh, Pa.) at the same time. The tumor volume was calculated as 4/3*π*(mean diameter/2)^3. The mice were dosed 5 times a week for 2 weeks. After 10 days of treatment, the mice were euthanized by CO2 inhalation. Blood samples were collected through cardiac bleeding using 25-gauge needle. Blood samples were incubated at room temperature for 30 min, followed by centrifugation at 4400 rpm, 4° C. for 30 min. Serum, as the supernatant, was separated from plasma and stored at −80° C. Tumor, liver, kidney, spleen, lung and heart were harvested. Part of the tumors was fixed in 10% neutral buffered formalin solution. […]
4.1.7 Determination of γ-Tocotrienol level by high performance liquid chromatography—A normal phase of HPLC method was performed as a modification of procedures known in the art. […] The absorbance of γ-T3 was monitored with a […] set at an excitation wavelength of 290 nm and emission wavelength of 360 nm.

[3] = system: PC-3 cells; assay: Spheroid (prostasphere) formation assay, PC-3 cells; type: cell-based; conditions: 5 μg/ml, untreated average 21 per well
Method: 5.1.7 Spheroid formation assay—Spheroid formation assay was performed with a protocol modified from previous study (Folkins C, p3560). Briefly, cells were first trypsinized, washed with 1× PBS and resuspended in DMEM F12 medium. Two hundred cells were added into each well of a 24-well-plate pre-coated with polyHEMA (Sigma, St. Louis, Mo.). Cells will be grown in DMEM/F12 mem (Invitrogen, Carlsbad, Calif.) supplemented with 4 μg/mL insulin (Sigma, St. Louis, Mo.), B27 (Invitrogen, Carlsbad, Calif.), 20 ng/mL EGF (Sigma, St. Louis, Mo.), and 20 ng/mL basic FGF (Invitrogen, Carlsbad, Calif.). Fresh medium with the above supplements was added every day. γ-T3 was added at indicated time points and the number of spheroids was counted at day 14 of the assay or at the end of the treatment. Each experiment was repeated in triplicates and each data point represented the mean and standard derivation.

Structure (SMILES): CC(C)=CCC/C(C)=C/CC/C(C)=C/CCC1(C)CCc2cc(O)c(C)c(C)c2O1 (centres unmarked) [γ-T3, 7,8-dimethyltocotrienol]
- JNK phosphorylation ([1]; C32): dosage-dependent increase in JNK phosphorylation activities
- NF-κB p65 activity (nuclear translocation) ([1]; C32): suppressed constitutive NF-κB p65 activity in a dose-dependent manner
- activation of pro-apoptotic proteins (cleaved products) ([1]; C32, different γ-T3 dosage, 24-hr): activation of procaspase 3, 7, 9 as well as PARP
- Id-1 and Id-3 expression levels (EGF-R similar) ([1]; C32, increasing dosages): significantly suppressed to almost undetectable level
- sub-G1 cell population (flow cytometry) ([1]; melanoma cells, γ-T3 at IC50, 24-hr): induction of sub-G1 cell population
- tumor γ-T3 amount relative to other internal organs [2]: at least two-fold
- γ-T3 concentration within the tumors [2]: 0.15±0.03 mg of γ-T3 per gram of wet weight
- prostasphere formation [3]: no prostasphere
